Test results: patent US10251396B2, “Amide compound and use of same for noxious arthropod control” (SUMITOMO CHEMICAL COMPANY, LIMITED, priority 2014, dated 2019)

Legend:
Assay type in all cases: in vivo
Blattella germanica = experiment: Test Example 1: spray knockdown test on Blattella germanica; conditions: 0.25 h; 2.0% w/v in isopropyl alcohol/kerosine=1/9, 1.5 mL sprayed, ten Blattella germanica, within 15 minutes; read-out: knockdown ratio of test vermin within 15 minutes
Procedure: A formulation containing each of the compounds (1), (3), (4), (5), (8), (11), (12) and (21) prepared in accordance with Formulation Example 7 was diluted with an isopropyl alcohol/kerosine=1/9 mixed liquid so that the concentration of each compound became 2.0% w/v, to obtain a diluted solution. Ten vermin Blattella germanica (male female each five vermin) were allowed to release in a container for a test in which a butter was applied on an inner wall (diameter 8.75 cm, height 7.5 cm, bottom face covered with 16 mesh wire net), and the container was arranged on a bottom of a chamber for a test (bottom surface: 46 cm×46 cm, height: 70 cm). From a height of 60 cm from an upper surface of the container, 1.5 mL of the diluted solution was sprayed using a spray gun (spraying pressure 0.42 kg/cm^2). Thirty seconds after spraying, the container was taken out from the chamber for a test, the number of vermin which had been knocked down was counted for 15 minutes with time, and a knockdown ratio was obtained. The knockdown ratio was calculated by the following expression. Knockdown ratio (%)=(number of knocked down vermin/number of test vermin)×100 As a result, the knockdown ratio of test vermin within 15 minutes was 80% or more, in treatment with the compounds (1), (3), (4), (5), (8), (11), (12) and (21), respectively.

Aphis gossypii = experiment: Test Example 5: foliar spray test on Aphis gossypii on cucumber; conditions: 500 ppm diluted solution, 20 mL/cup sprayed to cucumber, six days after spraying
Procedure: A formulation containing the compound (4) prepared in accordance with Formulation Example 15 was diluted with water so that the concentration became 500 ppm to obtain a diluted solution. On the other hand, a cucumber was planted in a polyethylene cup, and grown until a first true leaf developed. About 20 vermin of Aphis gossypii was parasitized therein. After one day, the diluted solution was sprayed to the cucumber at a ratio of 20 mL/cup. Six days after spraying, the number of live or dead vermin of Aphis gossypii was investigated, and a controlling value was obtained by the following expression. Controlling value (%)={1−(Cb×Tai)/(Cai×Tb)}×100 In addition, letters in the expression indicate the following meanings.

Plutella xylostella = experiment: Test Example 6: cabbage foliar spray test on second instar larvae of Plutella xylostella; conditions: 500 ppm diluted solution, 20 mL/cup sprayed to cabbage, 25° C., after 5 days
Procedure: A formulation containing the compound (21) prepared in accordance with Formulation Example 15 was diluted with water so that the concentration became 500 ppm, to prepare a diluted solution. On the other hand, the diluted solution was sprayed to a cabbage at a stage of three leaves planted in a polyethylene cup at a ratio of 20 mL/cup. After spraying, the plant was air-dried, foliage portions were cut and accommodated into a 50 mL cup, 5 second instar larvae of Plutella xylostella were released, and the cup was covered. This was stored at 25° C., and after 5 days, the number of dead vermin was counted, and a dead vermin ratio was obtained by the following expression.

Row | Structure (SMILES) | pest or weed control at 2 % strength (Blattella germanica) | controlling value (Aphis gossypii) | dead vermin ratio (Plutella xylostella)
1 | CC(C)CNC(=O)c1cc(COCc2ccccc2)on1 [compound (1)] | ≥ 80% |  | 
2 | C=C(C)CNC(=O)c1cc(COCc2ccccc2)on1 [compound (3)] | ≥ 80% |  | 
3 | COC(C)CNC(=O)c1cc(COCc2ccccc2)on1 (stereo not shown) [compound (4)] | ≥ 80% | ≥ 90% | 
4 | COCCNC(=O)c1cc(COCc2ccccc2)on1 [compound (5)] | ≥ 80% |  | 
5 | COC(C)(C)CNC(=O)c1cc(COCc2ccccc2)on1 [compound (8)] | ≥ 80% |  | 
6 | COC(CNC(=O)c1cc(COCc2ccccc2)on1)OC [compound (11)] | ≥ 80% |  | 
7 | COCC(COC)NC(=O)c1cc(COCc2ccccc2)on1 [compound (12)] | ≥ 80% |  | 
8 | COC(C)CNC(=O)c1cc(COCc2ccc3ccccc3c2)on1 (stereo not shown) [compound (21)] | ≥ 80% |  | ≥ 80%
